From PMC4326221 (Science translational medicine, 2014)
“And” between values parts separate entries of the source, which are not always exact repeats. Identical values can stand only once.

Key:
[1] = test system: p70 S6 kinase and 4E-BP1 phosphorylation in mouse lung cancer cells (6#); test: mTOR substrate phosphorylation by immunoblotting; format: cell-based; details: 6# cells, rapamycin 0.1 μM, 48 h
[2] = test system: Mouse lung cancer cells (6#); test: drug treatment of 6# cells, phase-contrast microscopy; format: cell-based; details: for effect on cell proliferation / cell death: FTI-277 15 μM, GGTI-298 15 μM, BPH-1222 10 μM
FPPS = details: cited from earlier work
human GGPPS = target: T1, human GGPPS (Homo sapiens, UniProt O95749); test: GGPPS enzymatic inhibition assay; format: biochemical; details: read-out: GGPPS Ki, in vitro
T1 sequence (O95749 1-300): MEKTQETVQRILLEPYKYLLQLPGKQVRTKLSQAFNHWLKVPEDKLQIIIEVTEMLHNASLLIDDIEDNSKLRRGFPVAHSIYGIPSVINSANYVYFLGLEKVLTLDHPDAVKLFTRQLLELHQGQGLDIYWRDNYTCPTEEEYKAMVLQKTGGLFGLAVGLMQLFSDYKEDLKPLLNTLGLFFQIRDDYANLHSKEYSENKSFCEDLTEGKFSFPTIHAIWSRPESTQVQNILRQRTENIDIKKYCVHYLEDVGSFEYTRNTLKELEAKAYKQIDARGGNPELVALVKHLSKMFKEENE

[3] = test system: HRAS, KRAS and RAP1A prenylation in U2OS cells expressing Flag-KRAS G12D; test: cell fractionation assay of protein prenylation; format: cell-based; details: 48 h, BPH-1222 10 μM, BPH-714 10 μM, zoledronate 20 μM
[4] = test system: GTP-bound KRAS in mouse lung cancer cells (M3L2); test: KRAS-GTP pull-down with RAF-1 RBD beads; format: cell-based; details: 48 h
[5] = test system: CHOP, BiP, LC3 in mouse lung cancer cells (6#); test: ER stress and autophagy markers by immunoblotting; format: cell-based
pharmacokinetics test = format: in vivo; details: single i.v. injection 5 mg/kg, female SD rats
KRAS tumors = test: zoledronate plus rapamycin in vivo; details: fig. S4D, E

## CO[C@H]1C[C@@H]2CC[C@@H](C)[C@@](O)(O2)C(=O)C(=O)N2CCCC[C@H]2C(=O)O[C@H]([C@H](C)C[C@@H]2CC[C@@H](O)[C@H](OC)C2)CC(=O)[C@H](C)/C=C(\C)[C@@H](O)[C@@H](OC)C(=O)[C@H](C)C[C@H](C)/C=C/C=C/C=C/1C [rapamycin]
[1]
  phosphorylation of mTOR substrates (p70 S6 kinase and 4E-BP1): potently blocked phosphorylation

## CC(C)=CCC/C(C)=C/CC/C(C)=C/CC/C(C)=C/CO [GGOH, geranylgeraniol]
[2]; supplementation 10 μM with BPH-1222 10 μM, 48 h
  rescue from bisphosphonate-induced cell death: substantially rescued cells

## O=P(O)(O)C(O)(Cc1cccnc1)P(=O)(O)O [risedronate]
FPPS
  FPPS inhibition: inhibit FPPS

## CCCCCCCCn1cc[n+](CC(O)(P(=O)([O-])O)P(=O)(O)O)c1 (centres unmarked) [BPH-1222]
Human GGPPS
  Ki: ~300 nM and 300 nM
[3]
  inhibition of protein farnesylation and geranylgeranylation (HRAS degradation, RAP1A dislodgement): robustly inhibited protein farnesylation as well as protein geranylgeranylation
[4]
  amount of GTP-bound KRAS: greatly reduced the amount of GTP-bound KRAS
[5]; 6# cells, 10 μM, 1, 2, or 3 days
  ER stress markers CHOP and BiP protein levels: potently induced
[5]; tumor cells treated with BPH-1222
  time to autophagy induction (accumulation of PE-conjugated LC3): 2 to 3 days
Pharmacokinetics test
  pharmacokinetic properties: good pharmacokinetic properties

## COC(=O)[C@H](CCSC)NC(=O)c1ccc(NC[C@@H](N)CS)cc1-c1ccccc1 [FTI-277]
[2]
  effect on cell proliferation / cell death: little effect on cell proliferation

## NCCCC(O)(P(=O)(O)O)P(=O)(O)O [alendronate]
FPPS
  FPPS inhibition: inhibit FPPS

## COC(=O)[C@H](CC(C)C)NC(=O)c1ccc(NC[C@@H](N)CS)cc1-c1cccc2ccccc12 [GGTI-298]
[2]
  effect on cell proliferation / cell death: little effect on cell proliferation

## O=P(O)(O)C(O)(Cn1ccnc1)P(=O)(O)O [zoledronate]
KRAS tumors
  synergy with rapamycin for killing KRAS tumors: synergizes with rapamycin in vivo
FPPS
  FPPS inhibition: inhibit FPPS
